For data set [1] the following is noted: Leite et al., 2012; cited from earlier work.
For the next data set, the system named is MDA-MB-231 (ALN2). The data set can be described thus: IC50 on cell monolayers (MTT assay). The data set is classed as cell-based, human. The following applies: 6-hour incubation, read-out: IC50 of free cisplatin. On the procedure: (§1) To determine the IC50 of liposomal cisplatin and of free cisplatin, 20,000 cells per well were plated in 96-well plates. A range of concentrations of sterilized liposomes (containing or not cisplatin) or of free cisplatin was added to the wells mixed in media (with 10% FBS) at pH 7.4 and pH 6.5. Upon completion of a 6-hour incubation, cells were washed twice with PBS, and 10% FBS-supplemented fresh media was then added to wells. After two doubling times an MTT assay (Promega, Madison, Wis.) was used (following the vendor's instructions) to evaluate percent cell viability. Absorbance was read at 570 nm.
as §1, with “sterile” for “sterilized”, “6 hour” for “6-hour”

The subject of another data set is MDA-MB-436 (ATCC). The data set can be described thus: IC50 on cell monolayers (MTT assay). The data set is classed as cell-based, human. The note with it: 6-hour incubation, read-out: IC50 of free cisplatin. On the procedure: as §1
as §1, with “sterile” for “sterilized”, “6 hour” for “6-hour”

Another data set deals with MDA-MB-231 (ATCC). The data set can be described thus: IC50 on cell monolayers (MTT assay). The note with it: 6-hour incubation, read-out: IC50 of free cisplatin. It counts as cell-based, human. Here is the method: as §1
as §1, with “sterile” for “sterilized”, “6 hour” for “6-hour”
For orientation: Formazan colour is commonly taken as a measure of viable cells.

A further data set relates to MDA-MB-231 (PRI3). The data set can be described thus: IC50 on cell monolayers (MTT assay). It counts as cell-based, human. The following applies: 6-hour incubation, read-out: IC50 of free cisplatin. On the procedure:
as §1
as §1, with “sterile” for “sterilized”, “6 hour” for “6-hour”

In a further data set the test system is MDA-MB-231 (LUNG1). The data set can be described thus: IC50 on cell monolayers (MTT assay). It counts as cell-based, human. The following applies: 6-hour incubation, read-out: IC50 of free cisplatin. On the procedure:
as §1
as §1, with “sterile” for “sterilized”, “6 hour” for “6-hour”

In data set [2] the test system is spontaneous MDA-MB-231 axillary lymph node (ALN) metastases. The data set can be described thus: Growth control of spontaneous TNBC metastases in vivo (cisplatin). The note with it: 7.5 mg/Kg i.v., three times in five-day intervals.

Read-outs that look alike come from different tables or passages of the source.

One may read the IC50 as the concentration that inhibits the measured activity by half. Regarding `N.N.[Cl][Pt][Cl]` [free cisplatin, cis-diamminedichloroplatinum (II)], in data set [1], the “reported MTD” value is 7.5 mg/kg. In addition, the IC50 was found to be 40.2 ± 7.4 µM in the data set on MDA-MB-231 (ALN2) (pH 6.5); 39.2 ± 5.9 µM in the data set on MDA-MB-231 (ALN2) (pH 7.4); 3200 ± 730 nM with MDA-MB-436 (ATCC) (pH 6.5); 2460 ± 900 nM in the data set on MDA-MB-436 (ATCC) (pH 7.4); 47.7 ± 4.4 µM in the data set with MDA-MB-231 (ATCC) (pH 6.5); 45.2 ± 8.2 µM with MDA-MB-231 (ATCC) (pH 7.4). Moreover, the half-inhibitory concentration (IC50) came to 37.7 ± 13.4 µM in the data set with MDA-MB-231 (PRI3) (pH 6.5), 32.4 ± 7.8 µM in the data set on MDA-MB-231 (PRI3) (pH 7.4), 42.6 ± 6.2 µM in the data set on MDA-MB-231 (LUNG1) (pH 6.5) and 40.2 ± 6.4 µM in the data set with MDA-MB-231 (LUNG1) (pH 7.4). In addition, the animal survival result in data set [2] is “shortest animal survival”. The “animals euthanized because of weight loss” value in data set [2] is reported as 100%.

The record behind these values is patent US20220118116A1, “ADHESIVE/ADSORPTION SWITCH ON NANOPARTICLES TO INCREASE TUMOR UPTAKE AND DELAY TUMOR CLEARANCE” (The Johns Hopkins University, priority 2019, published 2022).
